The test system of assay [1] is A375, SW620, LOVO and HCT116 xenografts. In words: Tumor xenografts in nude mice, tumor growth. It is filed as in vivo. Conditions: single administration. The procedure:
Six-week-old female athymic NU/NU nude mice were injected subcutaneously with 5×10^5 of A375, SW620, LOVO, and HCT116 in […] culture media/Matrigel at a 1:5 ratio. For cell-line-derived xenografts, animals were randomized at a tumor volume of 70 to 120 mm^3 to four to six groups, with n=8-10 tumors per group. […] Xenografts were measured with digital caliper, and tumor volumes were determined with the formula: […]. Animals were euthanized using CO2 inhalation. Tumor volumes are plotted as means±SEM. Mice were housed in air-filtered laminar flow cabinets with a 12-hr light/dark cycle and food and water ad libitum. […]

Assay [2] deals with B16F10 melanoma lung metastases.
Method: A luciferase-expressing B16F10 melanoma lung metastasis model was used. The cells were injected into the tail vein at day 0. The FiDOX particles and controls were injected at day 7. The progression of metastasis was monitored with bioluminescence imaging after injection of luciferin. The bioluminescence images show the luciferase-expressing B16F10 cancer cells after injection of D-luciferin, 21 days after inoculation and 14 days after a single treatment.
FIG. 8 is a plot showing laboratory mouse survival curve data in the B16F10 melanoma lung metastasis model treated with a single injection of FiDOX nanoparticles, injected on day 7.
C57BL/6 mice were inoculated intravenously (i.v.) with 1×10^5B16-F10 cells on day 0 and the tumor was allowed to establish until day 7. In one experiment, mice were divided randomly into 5 groups and injected i.v. with FiDOX, Fi, DexDOX.
After treatment, mice were monitored up to 8 or 17 weeks, depending on the treatment received. At the end of the experiments, mice were sacrificed, their lungs were collected, and the number of surface-visible tumors was examined. The Kaplan-Meier method was used to evaluate survival.
The anti-tumor efficacy of P-selectin-targeted drug carrier nanoparticles was assessed against an aggressive experimental metastasis model. […]

With `Cn1cnc2c(F)c(Nc3ccc(Br)cc3F)c(C(=O)NOCCO)cc21` [MEK162, 6-(4-bromo-2-fluoroanilino)-7-fluoro-N-(2-hydroxyethoxy)-3-methylbenzimidazole-5-carboxamide], in assay [1], the tumor growth inhibition result was “no effect”.
In the case of `COc1cccc2c1C(=O)c1c(O)c3c(c(O)c1C2=O)C[C@@](O)(C(=O)CO)C[C@@H]3O[C@H]1C[C@H](N)[C@H](O)[C@H](C)O1` [doxorubicin, (7S,9S)-7-[(2R,4S,5S,6S)-4-amino-5-hydroxy-6-methyloxan-2-yl]oxy-6,9,11-trihydroxy-9-(2-hydroxyacetyl)-4-methoxy-8,10-dihydro-7H-tetracene-5,12-dione], in assay [2] (single injection on day 7), the survival entry is on record as “did not have a significant effect”. Further, the tumor burden result in assay [2] (single injection, bioluminescence) was “did not have a significant effect”.

Values taken from US10478506B2, “Fucoidan nanogels and methods of their use and manufacture” (Memorial Sloan Kettering Cancer Center, priority 2014, dated 2019).
